# Values joined by “and” are separate entries in the source; they are usually repeats but may differ in a detail not shown here. Equal values may be shown once. Marks after values point to notes of the source that are not given here.
# Assays:
# [1] = Baggio, et al. Diabetes 53:2492-2500, 2004; cited from earlier work
# [2] = test system: type 2 diabetic subjects; design: species or system human; conditions: in vivo
# Experimental: (§1) Adverse event assessments and safety analyses (including electrocardiograms, vital sign measurements and physical exams) were conducted throughout the study. Nausea and vomiting were monitored for occurrence and duration. Immunogenicity assessments were performed with samples taken at baseline and at weeks 1, 4, 8, and 12, and 16. […] Population PK analysis was performed using a nonlinear mixed-effect modelling approach with NONMEM software (Icon Development Solutions, Ellicott City, Md.).
# (§2) Comparisons were made on the intent-to-treat population, defined as all randomly assigned subjects with at least one post-baseline assessment of the primary endpoint, using last-observation carried forward. The safety population included all randomized patients who received at least one dose of any medication after being randomized. An interim analysis was conducted at 8 weeks for administrative purposes by an independent statistical analysis group; blinding was retained for study investigators and study personnel with daily operational responsibility.
# Gastrointestinal (GI) adverse events may limit adherence to GLP-1 therapies.
# [3] = 28-day study in Japanese subjects: pharmacokinetics; format: in vivo, human; conditions: sc abdomen
# Experimental: (§3) In the 100 mg monthly group, most common AEs were flatulence (n=3, 38%), vomiting (n=3, 38%) and nausea (n=2, 25%).
# [4] = test system: Japanese subjects with type 2 diabetes; test: 28-day single-blind placebo-controlled study in Japanese subjects: pharmacodynamics (FPG, AUC0-4 glucose, A1C); format: in vivo, human
# [5] = test system: anti-albiglutide antibodies; test: Phase 2 trial: immunogenicity, anti-albiglutide antibodies via ELISA; format: in vivo, human
# Experimental: as §1, with “16. Samples were screened for anti-albiglutide antibodies via ELISA (Matthews, et al. J Clin Endocrinol Metab. 2008; DOI: 10.1210/jc.2008-1518).” for “16.”
# An 11-week post-treatment washout period was included to monitor development of anti-albiglutide antibodies. […] The appearance of anti-albiglutide antibodies was largely transient, with 1 subject remaining positive at week 27. […] There was no obvious association between presence of anti-albiglutide antibodies and either efficacy or safety.
# [6] = test system: type 2 diabetic subjects; test: Phase 2 randomized, placebo-controlled 16-week trial of weekly, biweekly and monthly albiglutide: glycemic efficacy (A1C, FPG, weight); format: in vivo, human; conditions: for A1C change from baseline (mean) / FPG change from baseline (mean) / Subjects achieving A1C < 7.0% / A1C reduction compared with placebo (ANCOVA model) / FPG change from baseline compared with placebo: week 16; for FPG reduction in background metformin (MET) subjects: after 16 weeks; for Weight loss: across albiglutide groups
# From the text: Main outcome measure was change from baseline A1C, week 16 vs placebo.
# Men and women of non-childbearing potential from 18-75 years of age were eligible for inclusion if diagnosed with type 2 diabetes ≧3 months before screening. Subjects were drug-naïve (diet & exercise) or treated with diet and exercise plus metformin as monotherapy stable for >3 months before prescreening (1 week prior to screening visit). […] Additional inclusion criteria included: BMI≧20 and ≦40 kg/m^2 and A1C at screening ≧7% and ≦10%.
# A1C and fasting plasma glucose (FPG) measurements were performed at Screening, Baseline, and at Weeks 2 (FPG Only), 4, 5, 7, 8, 9, 12, 15, and 16.
# The primary efficacy endpoint was change from baseline A1C at week 16 vs placebo across different doses within each schedule (weekly, biweekly, and monthly). The primary analysis was an ANCOVA model with main effects for treatment group and prior metformin therapy, adjusting for baseline A1C. Dose response was evaluated using contrasts within the ANCOVA model framework. Pairwise comparisons were performed in the same ANCOVA model. Secondary endpoints were analyzed similarly. Responder analysis and incidence of hypoglycemia were summarized by group statistics. […] Safety and tolerability data were collected categorically.
# as §2
# Patients were also assessed for reduction in fasting plasma glucose (FPG) and HbA1c reduction based on background metformin (MET) treatment.
# [7] = Phase 2 trial: pharmacokinetics of albiglutide (plasma ELISA, population PK with NONMEM); format: in vivo, human
# Experimental: as §1, with “16. Samples were screened for anti-albiglutide antibodies via ELISA (Matthews, et al. J Clin Endocrinol Metab. 2008; DOI: 10.1210/jc.2008-1518).” for “16.”
# [8] = test system: Japanese subjects with type 2 diabetes; test: 28-day study in Japanese subjects: safety/tolerability; format: in vivo, human
# Experimental: as §3
# [9] = 30 mg weekly sc, listed as albiglutide
# [10] = 50 mg biweekly sc, listed as ALB
# [11] = 50 mg biweekly sc, listed as albiglutide
# [12] = 100 mg monthly sc, listed as ALB
# [13] = 100 mg monthly sc, listed as albiglutide
substance,measurement,setting,value
Albiglutide: Long-acting GLP-1 receptor agonist: two DPP-4-resistant human GLP-1 analogs (GLP-1(7-36)(A8G)) fused to human albumin; SEQ ID NO:1,Permeability to the central nervous system,[1],relatively impermeant
same,Documented hypoglycemia,[2],0-3.1%
same,Documented hypoglycemia (in words),[2],not increased
same,Injection site local skin reactions,[2],2.9-28.2%
same,CL/F,[3],68.7 mL/h
same,Plasma t1/2,[3],127 h
same,V/F,[3],12.6 L
same,"A1C, PBO-adjusted change from baseline (LS Means Difference)","[4]; 15 mg weekly, day 29",−0.58*/ %
same,"FPG, PBO-adjusted change from baseline (LS Means Difference)","[4]; 15 mg weekly, day 29",−34.5* mg/dL
same,"A1C, PBO-adjusted change from baseline (LS Means Difference)","[4]; 15 mg weekly, day 43",−0.87* %
same,"A1C, PBO-adjusted change from baseline (LS Means Difference)","[4]; 30 mg weekly, day 29",−0.57*/ %
same,"FPG, PBO-adjusted change from baseline (LS Means Difference)","[4]; 30 mg weekly, day 29",−35.6* mg/dL
same,"A1C, PBO-adjusted change from baseline (LS Means Difference)","[4]; 30 mg weekly, day 43",−0.78* %
same,"A1C, PBO-adjusted change from baseline (LS Means Difference)","[4]; 50 mg biweekly, day 29",−0.63*/ %
same,"FPG, PBO-adjusted change from baseline (LS Means Difference)","[4]; 50 mg biweekly, day 29",−31.3* mg/dL
same,"A1C, PBO-adjusted change from baseline (LS Means Difference)","[4]; 50 mg biweekly, day 43",−0.79* %
same,"A1C, PBO-adjusted change from baseline (LS Means Difference)","[4]; 100 mg monthly, day 29",−0.51*/ %
same,"FPG, PBO-adjusted change from baseline (LS Means Difference)","[4]; 100 mg monthly, day 29",-13.2 mg/dL
same,"A1C, PBO-adjusted change from baseline (LS Means Difference)","[4]; 100 mg monthly, day 43",−0.59* %
same,Onset of improvement of FPG and weighted mean AUC0-4 glucose,[4]; Japanese subjects,improved as early as day 3
same,Subjects positive for anti-albiglutide antibodies,"[5]; 8 subjects in placebo and albiglutide arms, incl. 1 on placebo and 2 positive at baseline, through week 27",2.5%
same,Character of anti-albiglutide antibodies,[5]; antibody-positive subjects,"non-neutralizing, low-titer"
same,A1C change from baseline (mean),[6]; 4 mg weekly sc,−0.11%
same,FPG change from baseline (mean),[6]; 4 mg weekly sc,-0.47 ± 3.1 mmol/L
same,Subjects achieving A1C < 7.0%,[6]; 4 mg weekly sc,17.6%
same,A1C change from baseline (mean),"[6]; 4 mg weekly sc, listed as ALB",−0.1 ± 1.2%
same,A1C change from baseline (mean),[6]; 15 mg biweekly sc,−0.56%
same,FPG change from baseline (mean),[6]; 15 mg biweekly sc,-1.28 ± 2.4 mmol/L
same,Subjects achieving A1C < 7.0%,[6]; 15 mg biweekly sc,26.7%
same,A1C change from baseline (mean),"[6]; 15 mg biweekly sc, listed as ALB",−0.6 ± 1.0%
same,A1C change from baseline (mean),[6]; 15 mg weekly sc,−0.49%
same,FPG change from baseline (mean),[6]; 15 mg weekly sc,-0.72 ± 1.7 mmol/L
same,A1C change from baseline (mean),"[6]; 15 mg weekly sc, listed as ALB",−0.5 ± 0.7%
same,A1C change from baseline (mean),[6]; 30 mg biweekly sc,−0.79 ± %
same,FPG change from baseline (mean),[6]; 30 mg biweekly sc,-1.58 ± 2.1 mmol/L
same,Subjects achieving A1C < 7.0%,[6]; 30 mg biweekly sc,50.0%
same,A1C change from baseline (mean),"[6]; 30 mg biweekly sc, listed as ALB",−0.8 ± 1.0 %
same,MET patients achieving HbA1c <7%,[6]; 30 mg weekly,43%
same,A1C change from baseline (mean),[6]; 30 mg weekly sc,−0.87 ± %
same,A1C change from baseline (mean),"[6]; 30 mg weekly sc, listed as ALB",−0.9 ± 0.7 %
same,FPG change from baseline (mean),"[6]; 30 mg weekly sc, listed as ALB",-1.44 ± 2.0 mmol/L
same,Subjects achieving A1C < 7.0%,"[6]; 30 mg weekly sc, listed as ALB",51.7%
same,A1C change from baseline (mean),[6]; [9],−0.87% and −0.9%
same,FPG change from baseline (mean),[6]; [9],-1.44 mmol/L
same,Subjects achieving A1C < 7.0%,[6]; [9],52%
same,HbA1c reduction in MET subjects,"[6]; 30 mg weekly, 16 weeks",−0.78%
same,FPG reduction in background metformin (MET) subjects,[6]; 30 mg weekly,-1.26 mmol/L
same,A1C reduction compared with placebo (ANCOVA model),[6]; 30 mg weekly,−0.62%
same,FPG change from baseline compared with placebo,[6]; 30 mg weekly,-1.38 mmol/L
same,MET patients achieving HbA1c <7%,[6]; 50 mg biweekly,50%
same,A1C change from baseline (mean),[6]; 50 mg biweekly sc,−0.79 ± %
same,A1C change from baseline (mean),[6]; [10],−0.8 ± 1.0 %
same,FPG change from baseline (mean),[6]; [10],-1.32 ± 3.5 mmol/L
same,Subjects achieving A1C < 7.0%,[6]; [10],52.9%
same,A1C change from baseline (mean),[6]; [11],−0.79% and −0.8%
same,FPG change from baseline (mean),[6]; [11],-1.32 mmol/L
same,Subjects achieving A1C < 7.0%,[6]; [11],53%
same,HbA1c reduction in MET subjects,"[6]; 50 mg biweekly, 16 weeks",−0.83%
same,FPG reduction in background metformin (MET) subjects,[6]; 50 mg biweekly,-2.10 mmol/L
same,A1C reduction compared with placebo (ANCOVA model),[6]; 50 mg biweekly,−0.57%
same,FPG change from baseline compared with placebo,[6]; 50 mg biweekly,-1.16 mmol/L
same,A1C change from baseline (mean),[6]; 50 mg monthly sc,−0.55%
same,FPG change from baseline (mean),[6]; 50 mg monthly sc,-0.72 ± 2.8 mmol/L
same,Subjects achieving A1C < 7.0%,[6]; 50 mg monthly sc,22.9%
same,A1C change from baseline (mean),"[6]; 50 mg monthly sc, listed as ALB",−0.6 ± 1.0%
same,MET patients achieving HbA1c <7%,[6]; 100 mg monthly,46%
same,A1C change from baseline (mean),[6]; 100 mg monthly sc,−0.87 ± %
same,A1C change from baseline (mean),[6]; [12],−0.9 ± 0.9 %
same,FPG change from baseline (mean),[6]; [12],-1.22 ± 3.5 mmol/L
same,Subjects achieving A1C < 7.0%,[6]; [12],48.4%
same,A1C change from baseline (mean),[6]; [13],−0.87% and −0.9%
same,FPG change from baseline (mean),[6]; [13],-1.22 mmol/L
same,Subjects achieving A1C < 7.0%,[6]; [13],48%
same,HbA1c reduction in MET subjects,"[6]; 100 mg monthly, 16 weeks",−0.77%
same,FPG reduction in background metformin (MET) subjects,[6]; 100 mg monthly,-1.80 mmol/L
same,A1C reduction compared with placebo (ANCOVA model),[6]; 100 mg monthly,−0.60%
same,FPG change from baseline compared with placebo,[6]; 100 mg monthly,-1.17 mmol/L
same,Mean systolic and diastolic blood pressure,[6]; 16-week trial,tended to reduce
same,Plasma lipoprotein profile,[6]; 16-week trial,did not significantly change
same,Weight loss,"[6]; MET group, 16 weeks",−0.4 to −2.1 kg
same,Average weight loss,"[6]; highest dose regimens in each timing schedule, 16 weeks",−1.1 to −1.7 kg
same,A1C reduction from a mean baseline A1C of 8.0%,"[6]; maximum doses of each schedule (30 mg weekly, 50 mg biweekly, 100 mg monthly)",0.8-0.9%
same,Weight loss,"[6]; overall population, 16 weeks",−0.9 to −1.8 kg
same,β-cell function (assessed by HOMA-B),[6]; subjects receiving albiglutide,Small improvements
same,Steady state achieved after,[7]; 30 mg weekly,4-5 doses
same,Tmax,[7]; albiglutide sc,~72 h
same,Half-life,"[7]; sc, type 2 diabetic subjects",~120 h
same,Time to steady state levels after the first dose,"[7]; sc, type 2 diabetic subjects",4-5 weeks
same,Half-life,"[7]; sc, type 2 diabetic subjects, listed as SEQ ID NO:1",about 5 days
same,Nausea (AE incidence),"[8]; 100 mg monthly group, n=2",25%
same,Flatulence (AE incidence),"[8]; 100 mg monthly group, n=3",38%
same,Vomiting (AE incidence),"[8]; 100 mg monthly group, n=3",38%
same,Serious AEs,"[8]; all doses, 28 days",No serious AEs
same,Tolerability,"[8]; all doses, 28 days",generally well-tolerated

# — patent publication US8748377B2, “Pharmaceutical compositions” (GlaxoSmithKline LLC, priority 2008, dated 2014)
